Source: a melting point compilation (Tetko et al.; mined from patent text by program, amines drawn as free bases though some values may be those of a salt)

SMILES | melting point
O=C(NCCO)C(=O)c1ccc(OCCOc2ccc3ccccc3c2)cc1 | 138 to 140 °C
CCCc1nc(C)n2ncnc2c1Cc1ccc(-c2ccccc2C#N)cc1 | 112 °C
CS(=O)(=O)Nc1cnccc1CCCOc1cccnc1Oc1cccc(Cl)c1 | 131 to 133 °C
CS(=O)(=O)NC(=O)CCn1c2ccc(O)cc2c2c3c(c(-c4ccccc4Cl)cc21)C(=O)NC3=O | 290 to 296 °C
CCOC(=O)CN1CCN(CCOc2cc3c(Nc4cccc(Br)c4)ncnc3cc2OC)CC1 | 155 °C
CS(=O)(=O)c1ccc(C(CC2CCCC2)C(=O)Nc2ccccn2)cc1C(F)(F)F (stereo unspecified) | 86 to 89 °C
O=C(O)CNC(=O)Nc1cccc(C(=O)OCc2ccccc2)c1 | 168 °C
NS(=O)(=O)c1cccc(-c2cc(-c3nc(-c4ccc(C(F)(F)F)nc4)cc(C(F)F)n3)ccn2)c1 | 264 °C
Cc1oc(-c2ccccc2)nc1COc1ccc2cc(CC3OC(=O)NC3=O)oc2c1 (stereo unspecified) | 172 to 173 °C
N#Cc1nc2cc(O)ccc2s1 | 194 °C
CCOC(=O)c1c(CC)[nH]c(CC)c1C | 101 to 103 °C
O=C(Nc1ccn(C2OC(CO)C(O)C2(F)F)c(=O)n1)OCc1ccc([N+](=O)[O-])s1 (stereo unspecified) | 144 to 148 °C
C[C@@H](Oc1cncc(C(=O)Nc2ccc(C#N)cc2)c1)c1ccc(F)cc1 | 151 to 152 °C
CN1CCC(N(CCCC2CCCO2)S(=O)(=O)c2ccc(Nc3nccc(Nc4ccc(F)cc4)n3)cc2)CC1 (stereo unspecified) | 189 °C
CN(C(=O)NCC(=O)O)[C@H]1O[C@H](c2ccccc2Cl)c2cc(Cl)ccc2N(Cc2ccccc2)C1=O (relative stereo) | 153 to 155 °C
CCCOc1cc(CC)c(C(=O)OC)c(C(=O)O)c1 | 99 to 100 °C
N#CCCN1CCC(COC(=O)c2cc(Cl)c(N)c3c2OCCO3)CC1 | 101 to 103 °C
O=C(O)C1CC(c2ccc(-c3ccc(N4C[C@H](Cn5ccnn5)OC4=O)cc3F)cn2)=NO1 (stereo partly specified) | 190 to 194 °C
CCOc1cc(Cc2cnc(N)nc2N)cc2c1OC(C)(C)C=C2CO | 187 to 189 °C
CCOC(=O)C1=C(C)Nc2c(C(=O)OCC)ncn2C1c1cccc([N+](=O)[O-])c1 (stereo unspecified) | 160 to 162 °C
CCN(CC)C(=O)n1ccc(Sc2cccc(Cl)c2C)n1 | 87 to 88 °C
COc1nc(C2CC2)nc(O)c1C | 178 °C
CC1Cc2cc3c(cc2C(c2ccc([N+](=O)[O-])cc2)=NN1c1nc(=O)n(C2CC2)s1)OCO3 (stereo unspecified) | 246 to 247 °C
C#CCSc1ncc(Cl)cn1 | 66 °C
CC(=O)C1C(C)CC2C3CCC4CC(O)CCC4(C)C3C(=O)CC21C (stereo unspecified) | 138 to 140 °C
CC1(OCc2ccccc2)CCCC(C)(C(=O)Nc2ccccc2)O1 (stereo unspecified) | 55 to 56 °C

SMILES | melting point
C=CCN1CCNC1=C[N+](=O)[O-] | 97 to 98 °C
Oc1ccc(Oc2ncc(Br)cn2)cc1 | 178 °C
CCOP(=O)(Cc1ccc(NC(=O)c2cc(=O)c3ccccc3o2)cc1)OCC | 153 to 154 °C
C=C1CCC2=C(C1)CC(C)C1C2CCC2(C)C(O)CCC12 (stereo unspecified) | 112 °C
CCc1nc2c(c(=O)n(C)c(=O)n2-c2ccc(Cl)cc2Cl)n1Cc1ccc(OC)cc1 | 209 to 210 °C
CC1(C)OC(=O)c2ccc(COc3c(F)cc([N+](=O)[O-])cc3F)cc21 | 125 to 127 °C
CCOC(=O)Nc1ccc2c(c1C=O)OCO2 | 123 °C
CC1C(=O)OC2=C(CSc3ccccc32)C1=O (stereo unspecified) | 275 to 277 °C
CC(C)(C)OC(=O)N1C[C@@H]2Cc3cc4ccccc4n3C[C@@H]2C1 (relative stereo) | 143 to 144 °C
CC(=O)COc1ccc2cc(S(N)(=O)=O)sc2c1 | 181 to 185 °C
CCOC(=O)c1c(C)nc2c(c1N)c1c(n2Cc2ccccc2)CCCC1 | 146 to 147 °C
COc1ccc(-n2c(N)cc(=O)nc2SC)cc1 | 182 to 186 °C
COc1cc2c(cc1SCC(=O)O)oc1ccccc12 | 180 to 182 °C
CCOc1nn(-c2ccc(C(F)(F)F)cn2)cc1CCO | 75 to 76 °C
C=C(c1ccc(OC)c(N)c1)c1ccc(OC)c(OCC)c1 | 91 to 93 °C
O=C(NC(=O)c1cccnc1Cl)Nc1cc(Cl)c(OC(F)(F)C(Cl)Cl)c(Cl)c1 | 189 to 192 °C
CC(C)c1nn(-c2ccc(C(F)(F)F)cc2)cc1C=O | 81 to 82 °C
Cc1cc(-c2nc3cccnn3c2-c2ccnc(NC(=O)c3cncc(Cl)c3)c2)ccc1F | 252 to 254 °C
Clc1ccc(COC(C=Cc2ccccc2)Cn2ccnc2)c(Cl)c1 (stereo unspecified) | 134 °C
CC(C)(C)c1cccc(C[C@@H](NC(=O)c2cccc3c(Cl)cccc23)[C@@H](O)c2cccc(Cl)c2)c1 (racemic) | 91 to 93 °C
CCON=Cc1cc(-n2c(=O)cc(C(F)(F)F)[nH]c2=O)c(Cl)cc1Cl | 205 to 209 °C
CCCC(CC(=O)NC(=O)OC(C)(C)C)Nc1ccc(C)cc1 (stereo unspecified) | 63 to 64 °C
COCCCCCCCCCCCC(N)=S | 86.8 to 89.2 °C
O=C(Nc1ccccc1C(F)(F)F)C1CCCCC1 | 153 to 154 °C
COC(=O)c1ccc(N2CCC(c3ccc4c(c3)C(C)(C)CCC4(C)C)=N2)cc1 | 276 to 278 °C
O=C(O)COc1ccc2c(c1)sc1cc3ccccc3c(-c3ccc(OC(Cc4ccccc4)C(=O)O)cc3)c12 (stereo unspecified) | 191 to 201 °C

SMILES | melting point
COC(=O)c1cc(C#CC2(c3ccc(OC)c(OC4CCCC4)c3)CCC(=O)CC2)cc(C(=O)OC)c1 | 134 to 135 °C
O=C(O)C(=O)c1ccc(OCCSc2ccccc2)cc1 | 72 to 73 °C
CC(=O)Nc1nc(Cl)c2ncn([C@@H]3C[C@H](OC(C)=O)[C@@H](O)[C@H]3O)c2n1 (racemic) | 198 °C
COC(=O)CCc1ccc(CBr)cc1 | 38 to 42 °C
CCCCC1c2ccccc2-c2ccccc2N1S(=O)(=O)c1ccc(O)cc1 (stereo unspecified) | 149 to 151 °C
CCOC(=O)CC1(N2C(=O)c3ccccc3C2=O)C(=O)N(c2ccccc2)c2ccccc21 (stereo unspecified) | 148 to 149 °C
CNC(Cc1ccc2c(c1)Nc1nccnc1S2)=NC#N | 233 to 234 °C
COc1ccc(C(O)(CN)Cc2ccccc2N)cc1OC (stereo unspecified) | 131 to 133 °C
O=C1C2Cc3c(ncn3Cc3ccccc3)CN2C(=S)N1c1ccccc1 (stereo unspecified) | 224 to 226 °C
COc1ccc(NC(=O)c2ccccc2-c2cccc(F)c2)cc1 | 161 to 163 °C
COCC1=C(C(=O)OC)C(c2ccccc2Cl)c2c[nH]nc2N1 (stereo unspecified) | 160 °C
O=C(c1ccccc1Cl)N1Cc2c(-c3noc(C4CC4)n3)ncn2-c2ccccc21 | 254 to 256 °C
COc1ccc(-n2nc(Sc3ccc(C)c(C)c3)c(C)c(C#N)c2=O)cc1 | 158 to 160 °C
CCCCOC(=O)C=Nc1cc(Cl)ccc1C(=O)O | 130 °C
Cc1nc(-c2ccc(C(F)(F)F)cc2)sc1CSc1ccc2oc(C(=O)O)cc2c1 | 207 to 209 °C
C=CCNc1cc(C)nc2c(C)n[nH]c12 | 196 to 198 °C
COC1SC(c2ccncc2)=C(C)NC1=O (stereo unspecified) | 134 to 135 °C
Cc1cccc2c1nc1n2CC(c2ccccn2)S1 (stereo unspecified) | 96 °C
NC(=O)c1cccc(-c2ccnc3cc(Cc4cccc(C(F)(F)F)c4)sc23)c1 | 191 to 192 °C
CC(=O)NCCCn1c(-c2ccc(Br)cc2)csc1=Nc1ccccc1 | 155 to 157 °C
O=C(O)c1cccnc1Oc1cccc(Cl)c1 | 161 to 164 °C
CCOC(=O)c1[nH]c(C)c(C)c1OCCCl | 81 to 83 °C
OCCc1nccn1CCCCc1ccc(OCc2ccccc2)cc1 | 75 to 77 °C
CC(C)CC(=O)Nc1ccc2oc3c(c2c1)CCCC3 | 154 to 157 °C
Cc1cncn1CC#CCn1ccn(C)c1=O | 149 to 153 °C
C=CCN1CC(c2ccc(N)cc2F)CCS1(=O)=O (stereo unspecified) | 96 °C

SMILES | melting point
COc1ccc(-c2cccc3nc(Nc4cc(OC)c(OC)c(OC)c4)oc23)cn1 | 192 to 193 °C
CC(C)(C)[Si](C)(C)Oc1cc(Cl)cc(C(=O)C(F)(F)F)c1N | 45 to 46.5 °C
N#Cc1nn(-c2c(Cl)cc(C(F)(F)F)cc2Cl)c(N)c1C=NO | 175 to 178 °C
CCOCc1nc2c(N)nc3cc(OCCCc4cccnc4)ccc3c2n1CC(C)(C)O | 160 to 161 °C
O=c1[nH]c2ccccc2c2cc(CC(=S)N3CCOCC3)nn12 | 273 to 275 °C
CC(C)c1cc(C(C)C)c(CC(=O)NS(=O)(=O)Oc2c(C(C)C)cc(CNC(=O)CN)cc2C(C)C)c(C(C)C)c1 | 193 to 195 °C
COC(=O)C(Cc1ccc(OCCN(C)c2nc3ccccc3o2)cc1)Sc1ccccc1 (stereo unspecified) | 78 to 79 °C
COc1ccc(-c2c(C(=O)CC(C)C)c(C)nc3cc(OC)c(OC)cc23)cc1OC | 135 to 137 °C
CCOC(=O)COc1cc(OC)c2c(c1)OC1(CCCC1)CC2=O | 81 to 82 °C
COP(=O)(Nc1cc(C(C)C)ccc1N1CCOCC1)OC | 97 to 98 °C
CC(=Cc1ccccc1)CN1CCc2nc(N)sc2CC1 | 112 to 115 °C
COC(=O)Cc1csc(NC(C)=O)n1 | 122 to 123 °C
Cc1cc(Cl)c(O)cc1N | 144 °C
CCOC(=O)c1c(N)sc2c1CCN(CCCc1ccccc1)C2 | 108 to 110 °C
CC(C)(C)C(=O)Nc1ccc(Cl)cc1F | 70.5 to 71 °C
CC(C(=O)N(C)C)n1nc(-c2ccccc2)cc1-c1ccccc1 (stereo unspecified) | 133 to 135 °C
O=CNNC(=S)Nc1ccccc1F | 148 to 149 °C
CS(=O)(=O)c1cc2c(c(C(=O)O)c1)OCCO2 | 247 to 249 °C
Cc1nn(-c2cc(OC(C)C)c(Cl)cc2Cl)c(=O)[nH]c1=O | 163 to 164 °C
COc1cc(N)c(Cl)cc1C(=O)NCC12CCCN(CCC1)C2 | 202 to 203 °C
CCCn1nc(C(C)C)c(C(=O)OCc2cccc(C(=O)c3ccccc3)c2)c1Cc1ccc(-c2ccccc2S(N)(=O)=O)c(F)c1 | 46 to 50 °C
Cc1noc([C@H]2CC[C@@](C)(NCC(=O)N3C[C@@H](F)C[C@H]3C#N)C2(C)C)n1 | 147 to 151 °C
COc1ccc([N+](=O)[O-])c(C=CN2CCCC2)c1Cl | 89 to 92 °C
